# Laboratory results: ChEMBL document CHEMBL5230087, “Inhibitors of SARS-CoV-2 Entry: Current and Future Opportunities” (J Med Chem, 2020)
# Square brackets hold non-standard residues; d marks the D form. Peptide text beside a SMILES is read from it. * marks the point of attachment. ξ: configuration not given here. ξF = NC(Cc1ccccc1)C(=O)O; Cbz = O=C(OCc1ccccc1)*
# Key:
# [1] = Cytotoxicity against african green monkey Vero cells incubated for 3 days; format: toxicity, cell-based; conditions: chlorocebus sabaeus, time 3 day
# [2] = Antiviral activity against pseudovirus SARS-CoV spike protein infected in HeLa cells over expressing ACE2 assessed as inhibition on pseudovirus infection incubated for 52 hrs by luminescence based microplate reader analysis; format: functional, cell-based
# Ebolavirus = test: microbe, parasite or virus in culture; format: functional, organism-based; conditions: Orthoebolavirus
# [3] = biological target: T1, Angiotensin-converting enzyme 2 (Homo sapiens, UniProt Q9BYF1); test: Binding affinity to ACE2 (unknown origin) at 10 uM assessed as inhibition constant
# T1 sequence (Q9BYF1 whole entry): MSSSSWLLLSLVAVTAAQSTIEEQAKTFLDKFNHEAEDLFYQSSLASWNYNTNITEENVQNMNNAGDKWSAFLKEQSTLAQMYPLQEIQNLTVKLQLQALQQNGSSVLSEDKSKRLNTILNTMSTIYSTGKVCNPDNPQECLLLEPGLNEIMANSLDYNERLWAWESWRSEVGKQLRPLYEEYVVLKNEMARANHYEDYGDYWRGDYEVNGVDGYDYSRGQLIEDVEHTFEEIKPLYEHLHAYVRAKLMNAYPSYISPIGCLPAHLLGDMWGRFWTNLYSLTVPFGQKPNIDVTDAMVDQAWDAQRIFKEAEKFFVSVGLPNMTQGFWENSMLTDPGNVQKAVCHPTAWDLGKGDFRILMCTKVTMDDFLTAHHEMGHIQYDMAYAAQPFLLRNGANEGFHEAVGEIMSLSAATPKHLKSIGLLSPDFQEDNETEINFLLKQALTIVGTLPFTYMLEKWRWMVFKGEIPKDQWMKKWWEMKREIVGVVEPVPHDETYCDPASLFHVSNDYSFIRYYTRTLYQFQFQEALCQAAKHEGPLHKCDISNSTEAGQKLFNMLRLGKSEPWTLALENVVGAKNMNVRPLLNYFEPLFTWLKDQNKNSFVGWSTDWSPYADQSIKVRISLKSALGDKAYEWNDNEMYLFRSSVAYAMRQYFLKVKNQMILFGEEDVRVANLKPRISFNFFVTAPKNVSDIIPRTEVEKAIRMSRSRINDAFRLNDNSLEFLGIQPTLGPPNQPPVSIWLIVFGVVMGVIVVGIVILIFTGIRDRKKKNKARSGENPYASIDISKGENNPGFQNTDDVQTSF
# Procathepsin L = Procathepsin L (Homo sapiens, UniProt P07711); test: Inhibition of human recombinant Cathepsin L […] using Z-FR-AMC as substrate incubated for 30 mins by fluorometric assay
# Chain of Procathepsin L (P07711 whole entry): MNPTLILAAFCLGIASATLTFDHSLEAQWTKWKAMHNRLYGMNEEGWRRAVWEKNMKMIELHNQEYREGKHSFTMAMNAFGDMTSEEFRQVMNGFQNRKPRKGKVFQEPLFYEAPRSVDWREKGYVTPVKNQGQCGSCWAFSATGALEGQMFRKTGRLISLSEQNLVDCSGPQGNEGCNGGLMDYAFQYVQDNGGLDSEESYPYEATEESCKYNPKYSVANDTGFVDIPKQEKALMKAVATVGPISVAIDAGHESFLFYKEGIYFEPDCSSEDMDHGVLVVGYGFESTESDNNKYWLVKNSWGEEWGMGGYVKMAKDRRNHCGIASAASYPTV
# Human coronavirus 229E [4] = test: Antiviral activity against HCoV-229E; format: functional, organism-based
# [5] = biological target: T1, Angiotensin-converting enzyme 2; test: Inhibition of human recombinant ACE2 at 50 uM using (7Mca-Y-V-A- D -A-P- K(Knp) as a flurogenic substrate measured after 10 mins by fluorescence based analysis
# [6] = biological target: T1, Angiotensin-converting enzyme 2; test: Inhibition of SARS-CoV S binding to human recombinant ACE2 expressed in Escherichia coli BL21(DE3) incubated for 2 hrs by ELISA method
# [7] = biological target: T1, Angiotensin-converting enzyme 2; test: Inhibition of human ACE2 (unknown origin) at 0.5 uM
# [8] = Selectivity index, ratio of CC50 for African green monkey Vero cells to EC50 for SARS-CoV-2 nCoV-2019; format: toxicity; conditions: read-out: Selectivity Index
# [9] = biological target: T1, Angiotensin-converting enzyme 2; test: Inhibition of human recombinant ACE2
# SARS-CoV = test: Antiviral activity against SARS-CoV infected in African green monkey Vero cells assessed as viral growth inhibition; format: functional, organism-based; conditions: Severe acute respiratory syndrome-related coronavirus
# [10] = Inhibition of MERS-CoV S protein RBD (E367 to Y606 residues) expressed in Fc portion of the human IgG1 in CHO cells by chromatography method; design: species or system Middle East respiratory syndrome-related coronavirus
# SARS-CoV-2 = test: Antiviral activity against SARS-COV2 infected in African green monkey Vero B cells incubated for 48 hrs by ELISA; format: functional, organism-based; conditions: Severe acute respiratory syndrome coronavirus 2, Vero B
# Human coronavirus OC43 = test: Antiviral activity against HCoV-OC43 assessed as viral growth inhibition; format: functional, organism-based; conditions: Betacoronavirus 1
# [11] = Antiviral activity against HCoV-NL63 assessed as viral growth inhibition; format: functional, Human coronavirus NL63
# Mus musculus = test: Antiviral activity against MERS-COV infected in BALB/c mouse at 5 mg/kg; format: functional, organism-based
# [12] = Inhibition of MERS-CoV Main protease; design: species or system Middle East respiratory syndrome-related coronavirus
# [13] = Inhibition of clathrin mediated endocytosis (unknown origin); design: species or system Homo sapiens
# HeLa = test: Antiproliferative activity against human HeLa cells assessed as reduction in cell growth inhibition; format: functional, cell-based
# [14] = Cytotoxicity against African green monkey Vero cells by MTT assay; format: toxicity, cell-based; conditions: chlorocebus sabaeus
# Human coronavirus 229E [15] = test: Antiviral activity against HCoV-229E assessed as reduction of viral RNA level at 4 uM; format: functional, organism-based
structure (smiles),measurement,setting,value
COc1ccc(S(=O)(=O)O)cc1/N=N/c1c(S(=O)(=O)O)cc2cc(Nc3nc(Nc4ccccc4)nc(Nc4cc(C)c(/N=N/c5cc(S(=O)(=O)O)cc6cc(S(=O)(=O)O)cc(O)c56)cc4OC)n3)ccc2c1O,CC50 at 72 h,[1],26.9 µM
CC(C)(C)OC(=O)N[C@@H](Cc1c[nH]c2ccccc12)C(=O)NNC(=O)OCC(=O)N1CCCc2ccccc21,EC50,[2],0.273 µM
same,EC50,Ebolavirus,0.193 µM
NCCNCCN1CC1,Ki,[3],459 µM
C/C(=N/NC(N)=S)c1cccs1,IC50,Procathepsin L,5.33 µM
same,EC50,[2],6.4 µM
same,CC50 at 72 h,[1],100 µM
O=C(NC(Cc1ccccc1)C(=O)N1CCC(O)(c2ccc(Br)cc2)CC1)c1ccccc1 (centres undefined),EC50,Human coronavirus 229E [4],110 µM
CC(C)CC(CC(=O)NO)C(=O)NC(C(=O)NC(C)C(=O)NCCN)C(C)(C)C (centres undefined),IC50,[5],0.2 µM
C=C(N[C@@H](CCCN=C(N)N)C(=O)Cl)[C@@H](CCCCN)NC(=O)[C@H](NC(=O)[C@H](CCCN=C(N)N)NC(=O)CCCCCCCCCC)C(C)C,IC50,Procathepsin L,75 µM
CC[C@H](C)[C@H](NC(=O)[C@H](CO)NC(=O)[C@H](CCCCN)NC(=O)[C@H](CCC(N)=O)NC(=O)[C@H](CO)NC(=O)[C@@H](NC(=O)[C@@H](N)CO)[C@@H](C)O)C(=O)N[C@H](C(=O)N[C@@H](C)C(=O)N[C@@H](Cc1ccc(O)cc1)C(=O)N[C@H](C(=O)N[C@@H](CCSC)C(=O)O)[C@@H](C)O)C(C)C,IC50,[6],0.00188 µM
CC(C)C[C@H](NC(=O)[C@@H]1CCCN1C(=O)[C@H](CO)NC(=O)[C@H](CS)NC(=O)[C@H](Cc1cnc[nH]1)NC(=O)[C@H](CO)NC(=O)[C@H](Cc1ccc(O)cc1)NC(=O)[C@H](CC(=O)O)NC(=O)CN)C(=O)N[C@@H](CCCNC(=N)N)C(=O)N[C@@H](Cc1ccc(O)cc1)C(=O)N[C@@H](Cc1ccc(O)cc1)C(=O)N1CCC[C@H]1C(=O)N[C@@H](Cc1c[nH]c2ccccc12)C(=O)N[C@@H](Cc1c[nH]c2ccccc12)C(=O)N[C@@H](CCCCN)C(=O)N[C@@H](CS)C(=O)N[C@H](C(=O)N[C@@H](Cc1ccc(O)cc1)C(=O)N1CCC[C@H]1C(=O)N[C@@H](CC(=O)O)C(=O)N1CCC[C@H]1C(=O)N[C@@H](CCC(=O)O)C(=O)NCC(=O)NCC(=O)NCC(=O)O)[C@@H](C)O,IC50,[7],0.01 µM
same,Ki,[3],0.0028 µM
CC[C@H](C)[C@@H](NC(=O)[C@H]1CCCN1C(=O)[C@H](CCC(N)=O)NC(=O)[C@H](Cc1ccc(O)cc1)NC(=O)CNC(=O)[C@H](CCCCN)NC(=O)[C@H](Cc1ccc(O)cc1)NC(=O)[C@@H](NC(=O)[C@H](Cc1ccc(O)cc1)NC(=O)[C@H](CC(C)C)NC(=O)[C@H](Cc1ccccc1)NC(=O)CN)C(C)C)C(=O)O,IC50,[6],0.0043 µM
CC(C)CC(CC(=O)NO)C(=O)NC(Cc1ccc2ccccc2c1)C(=O)NC(C)C(N)=O (centres undefined),IC50,[5],0.1 µM
O=C(OC[C@H]1O[C@@H](OC(=O)c2cc(O)c(O)c(O)c2)[C@H](OC(=O)c2cc(O)c(O)c(O)c2)[C@H](OC(=O)c2cc(O)c(O)c(O)c2)[C@@H]1O)c1cc(O)c(O)c(O)c1,CC50 at 72 h,[1],1080 µM
same,selectivity ratio,[8],240
OC(COc1cccc(OCC(O)CN2CCCCC2)c1)CN1CCCCC1 (centres undefined),EC50,[2],3 µM
CC(C)CC(NC(Cc1cncn1Cc1cc(Cl)cc(Cl)c1)C(=O)O)C(=O)O (centres undefined),IC50,[5],0.00044 µM
O=C(Nc1ccc2c(c1)C(=O)c1ccccc1C2=O)c1ccccc1,IC50,[9],9.7 µM
same,CC50 at 72 h,[1],20 µM
CC[C@H](C)[C@H](NC(=O)CNC(=O)[C@@H](NC(=O)[C@@H](NC(=O)[C@@H](NC(=O)[C@H](Cc1ccc(O)cc1)NC(=O)[C@@H](N)Cc1ccccc1)[C@@H](C)O)[C@@H](C)O)[C@@H](C)O)C(=O)NCC(=O)N[C@@H](Cc1ccc(O)cc1)C(=O)N[C@@H](CCC(N)=O)C(=O)N1CCC[C@@H]1C(=O)N[C@H](Cc1ccc(O)cc1)C(=O)O,IC50,[6],0.00699 µM
CCC[C@@H]([C@@H](CC(C)C)C(=O)N[C@@H](CCCCNC(=O)OCc1ccccc1)C(=O)Nc1nccs1)N(O)C=O,IC50,[5],0.001 µM
CC[C@H](C)[C@H](NC(=O)[C@H](C)NC(=O)[C@H](CCCCN)NC(=O)[C@H](CC(N)=O)NC(=O)[C@H](Cc1ccccc1)NC(=O)[C@H](CCC(N)=O)NC(=O)[C@H](CC(N)=O)NC(=O)[C@H](C)NC(=O)[C@@H](NC(=O)[C@H](CCC(N)=O)NC(=O)[C@H](CCCCN)NC(=O)[C@H](CCC(N)=O)NC(=O)[C@H](CC(N)=O)NC(=O)[C@H](CCC(=O)O)NC(=O)[C@@H](N)Cc1ccc(O)cc1)[C@@H](C)CC)C(=O)N[C@@H](CO)C(=O)N[C@@H](CCC(N)=O)C(=O)N[C@H](C(=O)N[C@@H](CCC(N)=O)C(=O)N[C@@H](CCC(=O)O)C(=O)N[C@@H](CO)C(=O)N[C@@H](CC(C)C)C(=O)N[C@H](C(=O)N[C@H](C(=O)N[C@H](C(=O)N[C@@H](CO)C(=O)N[C@H](C(=O)N[C@@H](C)C(=O)O)[C@@H](C)O)[C@@H](C)O)[C@@H](C)O)[C@@H](C)O)[C@@H](C)CC,EC50,SARS-CoV,1.61 µM
CC[C@H](C)[C@H](NC(=O)[C@H](Cc1ccc(O)cc1)NC(=O)[C@H](CO)NC(=O)[C@H](CCC(=O)O)NC(=O)[C@H](CC(N)=O)NC(=O)[C@H](CC(C)C)NC(=O)[C@H](C)NC(=O)[C@H](CCCCN)NC(=O)[C@@H](NC(=O)[C@@H](NC(=O)[C@H](CCC(N)=O)NC(=O)[C@H](CCC(N)=O)NC(=O)[C@H](CC(C)C)NC(=O)[C@H](CO)NC(=O)[C@H](CC(C)C)NC(=O)[C@H](CCSC)NC(=O)[C@H](CCC(=O)O)NC(=O)[C@H](Cc1ccc(O)cc1)NC(=O)[C@@H](NC(=O)[C@H](CC(C)C)NC(=O)[C@H](CC(=O)O)NC(=O)[C@H](CC(C)C)NC(=O)[C@H](CC(C)C)NC(=O)[C@@H](NC(=O)[C@@H](NC(=O)[C@H](CC(N)=O)NC(=O)[C@@H](NC(=O)[C@H](CCC(N)=O)NC(=O)[C@@H](NC(=O)[C@H](CC(C)C)NC(=O)[C@@H](N)CO)[C@@H](C)O)[C@@H](C)CC)[C@@H](C)O)[C@@H](C)O)[C@@H](C)O)C(C)C)C(C)C)C(=O)N[C@@H](CC(=O)O)C(=O)N[C@@H](CC(C)C)C(=O)N[C@@H](CCCCN)C(=O)N[C@@H](CCC(=O)O)C(=O)N[C@@H](CC(C)C)C(=O)O,IC50,[10],0.6 µM
same,EC50,SARS-CoV-2,> 1000 µM
CC[C@H](C)[C@H](NC(=O)[C@H](C)NC(=O)[C@H](CCC(=O)O)NC(=O)[C@H](CCC(=O)O)NC(=O)[C@H](CC(C)C)NC(=O)[C@H](CCCCN)NC(=O)[C@H](CCCCN)NC(=O)[C@H](CCSC)NC(=O)[C@H](CCC(=O)O)NC(=O)[C@H](Cc1ccc(O)cc1)NC(=O)[C@H](CCC(=O)O)NC(=O)[C@H](CC(C)C)NC(=O)[C@H](CC(=O)O)NC(=O)[C@H](CC(C)C)NC(=O)[C@H](Cc1ccccc1)NC(=O)[C@@H](NC(=O)[C@@H](NC(=O)[C@H](CC(N)=O)NC(=O)[C@@H](NC(=O)[C@H](CCC(N)=O)NC(=O)[C@H](CC(=O)O)NC(=O)[C@H](CC(C)C)NC(=O)[C@@H](N)CO)[C@@H](C)CC)C(C)C)[C@@H](C)O)C(=O)N[C@@H](CCCCN)C(=O)N[C@@H](CCCCN)C(=O)N[C@@H](CC(C)C)C(=O)N[C@@H](CCC(=O)O)C(=O)N[C@@H](CCC(=O)O)C(=O)N[C@@H](CO)C(=O)N[C@@H](Cc1ccc(O)cc1)C(=O)N[C@H](C(=O)N[C@@H](CC(=O)O)C(=O)N[C@@H](CC(C)C)C(=O)N[C@@H](CCCCN)C(=O)N[C@@H](CCC(=O)O)C(=O)N[C@@H](CC(C)C)C(=O)O)[C@@H](C)CC,IC50,Human coronavirus 229E [4],3.35 µM
same,IC50,Human coronavirus OC43,1.81 µM
same,IC50,[11],6.02 µM
same,IC50,Mus musculus,2.38 µM
same,IC50,[12],0.19 µM
CC(C)[C@H](NC(=O)OCc1ccccc1)C(=O)NC(C=O)Cc1ccccc1 (stereo partly drawn) (Cbz-Val-[ξF]-aldehyde),EC50,[2],0.1 µM
CN(C)C(=O)COC(=O)Cc1ccc(OC(=O)c2ccc(NC(=N)N)cc2)cc1 [CAMOSTAT],IC50,Procathepsin L,10 µM
CCN(CC)CCCC(C)Nc1ccnc2cc(Cl)ccc12 (centres undefined) [CHLOROQUINE],IC50,[5],1.13 µM
same,IC50,SARS-CoV-2,1.13 µM
same,CC50 at 72 h,[1],> 100 µM
CN(C)CCCN1c2ccccc2Sc2ccc(Cl)cc21 [CHLORPROMAZINE],IC50,[13],7.24 µM
CCN(CCO)CCCC(C)Nc1ccnc2cc(Cl)ccc12 (centres undefined) [HYDROXYCHLOROQUINE],IC50,[5],0.72 µM
CN1CCN(C(=O)N[C@@H](Cc2ccccc2)C(=O)N[C@H](/C=C/S(=O)(=O)c2ccccc2)CCc2ccccc2)CC1 [K-777],IC50,[10],0.0461 µM
same,IC50,Human coronavirus 229E [4],0.00148 µM
same,CC50 at 72 h,[1],> 10 µM
same,IC50,[11],0.00678 µM
O=c1cc(-c2ccc(O)c(O)c2)oc2cc(O)cc(O)c12 [LUTEOLIN],CC50 at 72 h,[1],155 µM
same,selectivity ratio,[8],14.6
CC(CN1c2ccccc2Sc2ccccc21)N(C)C (centres undefined) [PROMETHAZINE],IC50,[13],7.48 µM
O=c1c(O)c(-c2ccc(O)c(O)c2)oc2cc(O)cc(O)c12 [QUERCETIN],CC50 at 72 h,[1],3320 µM
CN1CCN(CCOc2cc(OC3CCOCC3)c3c(Nc4c(Cl)ccc5c4OCO5)ncnc3c2)CC1 [SARACATINIB],IC50,HeLa,2.4 µM
same,CC50,[14],> 50 µM
same,IC50,Human coronavirus 229E [15],5.1 µM
